Assay results from patent US20110166112A1, “METHOD FOR STIMULATING PLATELET PRODUCTION” (Eisai, Inc., priority 2009, published 2011).
Where “and” joins values, the source holds several entries; their conditions need not be identical. Equal values may be shown once.

Test system: subjects with chronic idiopathic thrombocytopenic purpura (ITP)
Test: Phase 2 double-blind placebo-controlled dose-ranging 28-day study of E5501 tablets: platelet count response (responder rate)
Assay type: in vivo, human
Settings: for subjects with sustained platelet increases that met the criteria for positive response: 28 days
Protocol: This was a phase 2, multi-center, double-blind, randomized, placebo-controlled, dose-ranging, parallel group study of E5501 tablets, used in the treatment of subjects with chronic idiopathic thrombocytopenic purpura (ITP) refractory to or relapsed after at least one prior ITP therapy. Subjects who met all entry criteria were randomly assigned in a 3:3:3:3:1 ratio to one of the following five treatment groups dosed daily for 28 days: 1) E5501 2.5 mg; 2) E5501 5 mg; 3) E5501 10 mg; 4) E5501 20 mg; or 5) placebo (PBO). Each E5501 dosing group consisted of 15 subjects while the PBO group consisted of 5 subjects. All study subjects were evaluated weekly (days 7, 14, 21 and 28) for safety and efficacy while receiving study treatment, with a final assessment for safety and effectiveness performed 4 weeks after the last study dose (day 56) unless the subject entered the follow-on study. Platelet counts were also measured on day 3 and day 5.
The primary objective of this study was to assess platelet count response to E5501 on day 28. The response rate was defined as the proportion of subjects who were not on steroids with a screening visit B platelet count <30,000/mm^3 and who achieved a platelet count ≧50,000/mm^3, together with the proportion of subjects receiving steroids with a screening visit B platelet count ≧30,000/mm^3 but <50,000/mm^3 who achieved a platelet count ≧20,000/mm^3 above their screening visit B platelet count. Secondary objectives of the study included the evaluation of other markers of effectiveness, including changes in peripheral blood platelet count, the proportion of subjects who achieved a platelet count ≧50,000/mm^3 and ≧100,000/mm^3, and the proportion of subjects who achieved a doubling of their platelet count at screening visit B and the assessment of the safety and tolerability of E5501.
Primary efficacy endpoint. The primary endpoint in this study was E5501 responder rate on day 28. A responder is defined as a subject with screening visit B platelet count <30,000/mm^3 who achieves a platelet count ≧50,000/mm^3 or a subject receiving steroids with a screening visit B platelet count ≧30,000/mm^3 but <50,000/mm^3 who achieves a platelet count ≧20,000/mm^3 above their screening visit B platelet count.
The secondary endpoints included changes from screening visit B in peripheral blood platelet counts over time; the proportion of subjects who achieved a platelet count of ≧50,000/mm^3 or ≧100,000/mm^3 on day 28 and the proportion of subjects whose platelet count doubled compared to their platelet count at Screening Visit B.
The populations of interest were defined as follows: • The randomized population included all subjects who were randomized into the study. • The safety population included all randomized subjects who receive at least one dose of study drug and have at least one safety assessment. • The pharmacokinetic (PK) population included all subjects who provided blood sample for analysis of E5501. A subject was included in this population if the subject had at least one blood draw for PK assessment. • The full analysis set (FAS) included all subjects who provided adequate data to derive at least one efficacy assessment. […] The day 28 visit window was defined to be from day 25, to last dose day+1, inclusively; • Other major protocol violations that impacted the platelet endpoint evaluation. Results from Planned Analyses
Primary Efficacy Endpoint. The analysis of efficacy was performed both on the FAS population and the PP population at day 28 visit with LOCF and observed case (OC) approaches. The primary analysis population was the FAS. Fisher's exact test was used to examine the difference of response rates among each treatment pair. All p-values are nominal without adjustment for multiplicity.
Secondary Efficacy Endpoint. Analyses for secondary efficacy endpoints were performed by treatment group and by analysis visit using both LOCF and OC methods. […]

[1] = Day 3, FAS, Observed Case, 2.5 mg
[2] = Day 3, FAS, Observed Case, 5 mg
[3] = Day 3, FAS, Observed Case, 10 mg
[4] = Day 3, FAS, Observed Case, 20 mg
[5] = Day 3, FAS, Observed Case, Total E5501
[6] = Day 5, FAS, Observed Case, 2.5 mg
[7] = Day 5, FAS, Observed Case, 5 mg
[8] = Day 5, FAS, Observed Case, 10 mg
[9] = Day 5, FAS, Observed Case, 20 mg
[10] = Day 5, FAS, Observed Case, Total E5501
[11] = Day 28, Baseline Platelet Cnt. >15K/mm^3, 2.5 mg
[12] = Day 28, Baseline Platelet Cnt. >15K/mm^3, 5 mg
[13] = Day 28, Baseline Platelet Cnt. >15K/mm^3, 10 mg
[14] = Day 28, Baseline Platelet Cnt. >15K/mm^3, 20 mg
[15] = Day 28, Baseline Platelet Cnt. >15K/mm^3, Total E5501
[16] = Day 28, Baseline Platelet Cnt. ≦15K/mm^3, 2.5 mg
[17] = Day 28, Baseline Platelet Cnt. ≦15K/mm^3, 5 mg
[18] = Day 28, Baseline Platelet Cnt. ≦15K/mm^3, 10 mg
[19] = Day 28, Baseline Platelet Cnt. ≦15K/mm^3, 20 mg
[20] = Day 28, Baseline Platelet Cnt. ≦15K/mm^3, Total E5501
[21] = Day 28, Full Analysis Population, LOCF, 2.5 mg
[22] = Day 28, Full Analysis Population, LOCF, 5 mg
[23] = Day 28, Full Analysis Population, LOCF, 10 mg
[24] = Day 28, Full Analysis Population, LOCF, 20 mg
[25] = Day 28, Full Analysis Population, LOCF, Total E5501
[26] = Day 28, No Previous History of Splenectomy, 2.5 mg
[27] = Day 28, No Previous History of Splenectomy, 5 mg

## O=C(Nc1nc(-c2cc(Cl)cs2)c(N2CCN(C3CCCCC3)CC2)s1)c1cnc(N2CCC(C(=O)O)CC2)c(Cl)c1 [E5501, 1-(3-chloro-5-{[4-(4-chlorothiophen-2-yl)-5-(4-cyclohexylpiperazin-1-yl)thiazol-2-yl]carbamoyl}pyridine-2-yl)piperidine-4-carboxylic acid]
20 mg
  subjects refractory to splenectomy who responded: 66.7%
  subjects with sustained platelet increases that met the criteria for positive response: 76.9% and ~80%
20 mg dose group
  reduction in the response rate from day 7 to 28 days: about 15%
28 day study period, 2.5-20 mg
  platelet counts from baseline (FIG. 1): markedly increased platelet counts from baseline
5 mg
  subjects with sustained platelet increases that met the criteria for positive response: 28.6%
10 mg
  subjects with sustained platelet increases that met the criteria for positive response: 41.7%
[1]
  Responder, No: 4 (100.0) n (%)
  Responder, Yes: 0 n (%)
[2]
  Responder, No: 3 (100.0) n (%)
  Responder, Yes: 0 n (%)
[3]
  Responder, No: 2 (100.0) n (%)
  Responder, Yes: 0 n (%)
[4]
  Responder, No: 3 (75.0) n (%)
  Responder, Yes: 1 (25.0) n (%)
[5]
  Responder, No: 12 (92.3) n (%)
  Responder, Yes: 1 (7.7) n (%)
[6]
  Responder, No: 4 (100.0) n (%)
  Responder, Yes: 0 n (%)
[7]
  Responder, No: 2 (33.3) n (%)
  Responder, Yes: 4 (66.7) n (%)
[8]
  Responder, No: 3 (75.0) n (%)
  Responder, Yes: 1 (25.0) n (%)
[9]
  Responder, No: 4 (80.0) n (%)
  Responder, Yes: 1 (20.0) n (%)
[10]
  Responder, No: 13 (68.4) n (%)
  Responder, Yes: 6 (31.6) n (%)
Day 7, FAS, LOCF, 2.5 mg
  Nonresponder: 14 (93.3) n (%)
  Responder: 1 (6.7) n (%)
Day 7, FAS, LOCF, 5 mg
  Nonresponder: 5 (33.3) n (%)
  Responder: 10 (66.7) n (%)
Day 7, FAS, LOCF, 10 mg
  Nonresponder: 5 (35.7) n (%)
  Responder: 9 (64.3) n (%)
Day 7, FAS, LOCF, 20 mg
  Nonresponder: 1 (6.7) n (%)
  Responder: 14 (93.3) n (%)
Day 7, FAS, LOCF, Total E5501
  Nonresponder: 25 (42.4) n (%)
  Responder: 34 (57.6) n (%)
Day 14, FAS, LOCF, 2.5 mg
  Nonresponder: 12 (80.0) n (%)
  Responder: 3 (20.0) n (%)
Day 14, FAS, LOCF, 5 mg
  Nonresponder: 6 (40.0) n (%)
  Responder: 9 (60.0) n (%)
Day 14, FAS, LOCF, 10 mg
  Nonresponder: 3 (21.4) n (%)
  Responder: 11 (78.6) n (%)
Day 14, FAS, LOCF, 20 mg
  Nonresponder: 1 (6.7) n (%)
  Responder: 14 (93.3) n (%)
Day 14, FAS, LOCF, Total E5501
  Nonresponder: 22 (37.3) n (%)
  Responder: 37 (62.7) n (%)
Day 21, FAS, LOCF, 2.5 mg
  Nonresponder: 13 (86.7) n (%)
  Responder: 2 (13.3) n (%)
Day 21, FAS, LOCF, 5 mg
  Nonresponder: 6 (40.0) n (%)
  Responder: 9 (60.0) n (%)
Day 21, FAS, LOCF, 10 mg
  Nonresponder: 7 (50.0) n (%)
  Responder: 7 (50.0) n (%)
Day 21, FAS, LOCF, 20 mg
  Nonresponder: 2 (13.3) n (%)
  Responder: 13 (86.7) n (%)
Day 21, FAS, LOCF, Total E5501
  Nonresponder: 28 (47.5) n (%)
  Responder: 31 (52.5) n (%)
[11]
  Responder, No: 8 (80.0) n (%)
  Responder, Yes: 2 (20.0) n (%)
[12]
  Responder, No: 6 (46.2) n (%)
  Responder, Yes: 7 (53.8) n (%)
[13]
  Responder, No: 4 (44.4) n (%)
  Responder, Yes: 5 (55.6) n (%)
[14]
  Responder, No: 2 (18.2) n (%)
  Responder, Yes: 9 (81.8) n (%)
[15]
  Responder, No: 20 (46.5) n (%)
  Responder, Yes: 23 (53.5) n (%)
[16]
  Responder, No: 5 (100.0) n (%)
  Responder, Yes: 0 n (%)
[17]
  Responder, No: 1 (50.0) n (%)
  Responder, Yes: 1 (50.0) n (%)
[18]
  Responder, No: 3 (60.0) n (%)
  Responder, Yes: 2 (40.0) n (%)
[19]
  Responder, No: 1 (25.0) n (%)
  Responder, Yes: 3 (75.0) n (%)
[20]
  Responder, No: 10 (62.5) n (%)
  Responder, Yes: 6 (37.5) n (%)
[21]
  Responder, No: 13 (86.7) n (%)
  Responder, Yes: 2 (13.3) n (%)
[22]
  Responder, No: 7 (46.7) n (%)
  Responder, Yes: 8 (53.3) n (%)
[23]
  Responder, No: 7 (50.0) n (%)
  Responder, Yes: 7 (50.0) n (%)
[24]
  Responder, No: 3 (20.0) n (%)
  Responder, Yes: 12 (80.0) n (%)
[25]
  Responder, No: 30 (50.8) n (%)
  Responder, Yes: 29 (49.2) n (%)
[26]
  Responder, No: 9 (90.0) n (%)
  Responder, Yes: 1 (10.0) n (%)
[27]
  Responder, No: 5 (45.5) n (%)
  Responder, Yes: 6 (54.5) n (%)
Day 28, No Previous History of Splenectomy, 10 mg
  Responder, No: 5 (45.5) n (%)
